From PubChem BioAssay (NCI)
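GI50 marks 50% less growth. TGI is the concentration that stops growth completely.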

Legend:
Experiment in all cases: inhibition of tumour cell growth, NCI panel, 384-well format
RPMI-8226 leukemia = system: RPMI-8226 leukemia
HCT-15 colon = system: HCT-15 colon
SK-MEL-28 melanoma = system: SK-MEL-28 melanoma
T-47D breast = system: T-47D breast
MCF7 breast = system: MCF7 breast
SK-MEL-2 melanoma = system: SK-MEL-2 melanoma
UACC-257 melanoma = system: UACC-257 melanoma
SNB-19 CNS = system: SNB-19 CNS
NCI-H460 NSCLC = system: NCI-H460 NSCLC
OVCAR-4 ovarian = system: OVCAR-4 ovarian
MOLT-4 leukemia = system: MOLT-4 leukemia
HS 578T breast = system: HS 578T breast
NCI-H226 lung = system: NCI-H226 lung

## O=C(/C=C/c1cccc(S(=O)(=O)Nc2ccccc2)c1)NO
RPMI-8226 leukemia
  GI50: 95.7 nM
  TGI: 221 nM
HCT-15 colon
  GI50: 579 nM
  TGI: 2100 nM
SK-MEL-28 melanoma
  GI50: 565 nM
  TGI: 1890 nM
T-47D breast
  GI50: 208 nM
  TGI: 547 nM
MCF7 breast
  GI50: 264 nM
  TGI: 1300 nM
SK-MEL-2 melanoma
  GI50: 265 nM
  TGI: 558 nM
UACC-257 melanoma
  GI50: 289 nM
  TGI: 1030 nM
SNB-19 CNS
  GI50: 853 nM
  TGI: 2240 nM
NCI-H460 NSCLC
  GI50: 350 nM
  TGI: 1500 nM
OVCAR-4 ovarian
  GI50: 1880 nM
  TGI: 5860 nM
MOLT-4 leukemia
  GI50: 137 nM
  TGI: 267 nM
HS 578T breast
  GI50: 474 nM
  TGI: 1600 nM
NCI-H226 lung
  GI50: 1260 nM
  TGI: 3050 nM
